Experiments:
HT-29 cells = assay: In vitro growth inhibition, HT-29 colon carcinoma cells; format: cell-based; conditions: HT-29, human colon carcinoma
Method: (§1) Synthetic halichondrin B I was tested in growth inhibition assays against several different tumor cell lines to obtain IC50 values. For comparison, the National Cancer Instititute reported growth inhibitory effects of natural halichondrin B against L1210 murine leukemia cells at IC50 =0.3 nM [J. Biol. Chem. 266:15882-15889 (1991)] and Hirata and Uemura reported IC50 =0.08 nM against B-16 murine melanoma cells [Pure Appl. Chem. 58:701-710 (1986)]. Both references are hereby incorporated in their entirety.

[1] = test system: subcutaneous LOX human melanoma tumors; assay: In vivo anti-tumor effect on subcutaneous LOX human melanoma tumors in nude mice
Method: Mice received 1×10^6 LOX cells via s.c. injection on day 0, with complete injection randomization across sexes and treatment groups. On days 3-7 and 10-14, male and female experimental mice received 25 μg/kg of synthetic halichondrin B 1 via i.p. injection in saline; controls received saline alone.

OVCA 433 cells = assay: In vitro growth inhibition, OVCA 433 ovarian carcinoma cells; format: cell-based; conditions: OVCA 433, human ovarian carcinoma
Method: as §1

MG-63 cells = assay: In vitro growth inhibition, MG-63 osteosarcoma cells; format: cell-based; conditions: MG-63, human osteosarcoma
Method: as §1

[2] = test system: L1210 murine leukemia cells; conditions: natural halichondrin B, J. Biol. Chem. 266:15882-15889 (1991), read-out: growth inhibitory effects, IC50; cited from earlier work
HL-60 cells = assay: In vitro growth inhibition, HL-60 monocytic leukemia cells; format: cell-based; conditions: HL-60, human monocytic leukemia
Method: as §1

SK-OV-3 cells = assay: In vitro growth inhibition, SK-OV-3 ovarian carcinoma cells; format: cell-based; conditions: SK-OV-3, human ovarian carcinoma
Method: as §1

[3] = test system: B-16 murine melanoma cells; conditions: Pure Appl. Chem. 58:701-710 (1986), read-out: IC50 against B-16 cells; cited from earlier work
Caov-3 cells = assay: In vitro growth inhibition, Caov-3 ovarian carcinoma cells; format: cell-based; conditions: Caov-3, human ovarian carcinoma
Method: as §1

NIH:OVCAR-3 cells = assay: In vitro growth inhibition, NIH:OVCAR-3 ovarian carcinoma cells; format: cell-based; conditions: NIH:OVCAR-3, human ovarian carcinoma
Method: as §1

MCF-7 cells = assay: In vitro growth inhibition, MCF-7 breast carcinoma cells; format: cell-based; conditions: MCF-7, human breast carcinoma
Method: as §1

DK-l cells = assay: In vitro growth inhibition, DK-l ras-transforming fibroblasts; format: cell-based; conditions: human ras-transforming fibroblasts
Method: as §1

LOX human melanoma cells = assay: In vitro growth inhibition, LOX melanoma cells; format: cell-based; conditions: Table 1, LOX, synthetic halichondrin B
Method: as §1
In addition, several synthetic halichondrin-related compounds were tested. […] For the structures of compounds 13-16, see FIG. 3.

Q: Which IC50 (HT-29 cells) does the source give for `C=C1C[C@@H]2CC[C@@]34C[C@H]5O[C@H]6[C@@H](O3)[C@H]3O[C@H](CC[C@@H]3O[C@H]6[C@H]5O4)CC(=O)O[C@@H]3[C@@H](C)[C@@H]4O[C@@H]5C[C@]6(C[C@@H]7O[C@]8(C[C@H](C)[C@@H]9O[C@H]([C@@H](O)C[C@@H](O)CO)C[C@@H]9O8)C[C@H](C)[C@@H]7O6)O[C@@H]5C[C@@H]4O[C@H]3C[C@H]3O[C@@H](CC[C@@H]1O2)C[C@@H](C)C3=C` [halichondrin B] here?
A: Its IC50 is 0.19 nM.

Q: And the tumor growth ([1]; 25 μg/kg i.p. in saline, days 3-7 and 10-14, both sexes)?
A: The tumor growth was “prevented tumor growth almost completely in both sexes”.

Q: What about the “tumor growth after initial development period” value ([1]; 25 μg/kg i.p., days 3-7 and 10-14, after initial development into visible but very small tumors) of the same compound?
A: The value was “failed to grow after an initial period of development into visible but very small tumors”.

Q: What about the tumor regression ([1]; 25 μg/kg i.p., after the initial development period) of the same compound?
A: The tumor regression was “actually regressed”.

Q: And the IC50 (OVCA 433 cells)?
A: Its IC50 is 0.16 nM.

Q: And the IC50 (MG-63 cells)?
A: The IC50 was 0.13 nM.

Q: What about the IC50 [2] of the same compound?
A: The IC50 was 0.3 nM.

Q: And the IC50 (HL-60 cells)?
A: The IC50 was 0.12 nM.

Q: What about the IC50 (SK-OV-3 cells) of the same compound?
A: The IC50 was 0.12 nM.

Q: What about the IC50 [3] of the same compound?
A: Its IC50 is 0.08 nM.

Q: And the IC50 (Caov-3 cells)?
A: Its IC50 is 0.25 nM.

Q: And the IC50 (NIH:OVCAR-3 cells)?
A: The IC50 was 0.06 nM.

Q: What about the IC50 (MCF-7 cells) of the same compound?
A: The IC50 was 0.2 nM.

Q: What about the IC50 (DK-l cells) of the same compound?
A: Its IC50 is 0.18 nM.

Q: What about the IC50 (LOX human melanoma cells) of the same compound?
A: Its IC50 is 0.08 nM.
